One compound from US10000498B2, “Selective proton coupled folate transporter and folate receptor, and GARFTase inhibitor compounds and methods of using the same” (Duquesne University of the Holy Spirit, priority 2008, dated 2018) can be followed below.

For series [1], the system named is R2/VC cells (vector control R2 CHO). Kind of series: Growth inhibition of vector control R2 CHO cells (Cell TiterBlue, 96 h). It is filed as cell-based, Chinese hamster. The settings on record: Cricetulus griseus, read-out: Growth inhibition 50% inhibitory concentration, R2/VC. On the technique in general: Alamar Blue is a resazurin reagent that responds to reducing activity.

The next series concerns the target T1, hRFC (Homo sapiens, UniProt P41440).
T1 construct: expressed in transfected cells; host or cells: PC43-10 (CHO subline derived from RFC- and FR-null R2 cells)
T1 sequence (P41440 1-591): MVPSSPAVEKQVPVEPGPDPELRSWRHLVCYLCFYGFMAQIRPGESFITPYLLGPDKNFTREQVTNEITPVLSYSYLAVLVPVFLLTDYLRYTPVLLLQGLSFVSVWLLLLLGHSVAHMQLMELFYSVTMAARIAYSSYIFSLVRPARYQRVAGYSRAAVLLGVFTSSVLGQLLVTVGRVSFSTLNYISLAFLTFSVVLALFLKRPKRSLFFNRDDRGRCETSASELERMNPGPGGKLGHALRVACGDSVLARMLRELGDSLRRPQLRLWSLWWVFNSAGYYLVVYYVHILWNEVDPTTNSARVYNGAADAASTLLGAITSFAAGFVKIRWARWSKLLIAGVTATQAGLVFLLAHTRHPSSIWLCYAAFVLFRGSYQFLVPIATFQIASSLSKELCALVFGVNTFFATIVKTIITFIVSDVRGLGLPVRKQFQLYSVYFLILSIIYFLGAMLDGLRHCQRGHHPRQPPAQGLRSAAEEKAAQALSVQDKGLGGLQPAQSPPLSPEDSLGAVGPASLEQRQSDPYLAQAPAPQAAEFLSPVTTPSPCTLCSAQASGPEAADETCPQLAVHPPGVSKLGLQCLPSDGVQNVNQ
Kind of series: Inhibition of [3H]MTX uptake by RFC in PC43 cells. The settings on record: pH 7.2-7.4; not shown. The class given is cell-based.

Series [2] deals with human KB cervical tumors as xenografts. Kind of series: In vivo evaluation in advanced stage KB tumor xenograft. On the set-up: species or system SCID female mice. As for the experimental part:
SCID female mice bearing advanced stage human KB cervical tumors as xenografts (xenograft tumors) were administered compound AAG154353 of the present invention intravenously at various doses and schedules.
Mice were maintained on a Folic Acid deficient diet (Harlan-Teklad Diet #00434; Madison, Wis.) exclusively for approximately three weeks at the start of treatment. […] Thus, significant antitumor activity was detected. Toxicity as reflected in weight loss was modest.

The mark [3] stands for this setting: Q2dx4 starting day 43, 500 mg/kg total dose IV.

In the case of `Nc1nc2[nH]c(CCCCc3ccc(C(=O)N[C@@H](CCC(=O)O)C(=O)O)s3)cc2c(=O)[nH]1` [AAG154353, (S)-2-({5-[4-(2-amino-4-oxo-4,7-dihydro-3H-pyrrolo[2,3-d]pyrimidin-6-yl)-butyl]thiophene-2-carbonyl}-amino)-pentanedioic acid], in series [1], the IC50 was above 1 µM. The “Inhibition of [3H]MTX transport from hRFC in pC43-10 cells (in words)” value on hRFC is on record as “negligible inhibition”. For the same compound, in series [2] (IV, three mice on various dose/schedules, tumors 446 to 650 mg at start, folic acid deficient diet), the “Tumor response of late stage KB xenografts” value is recorded as “tumors regressed completely”. Also, the “Toxicity as reflected in weight loss” value in series [2] (IV, various dose/schedules) is “modest”. The compound also yielded a Tumor size in series [2] (setting [3]) of 63 mg. Besides, in series [2] (setting [3]), the Tumor-free status result is “tumor free up to day 60”. The “Time mouse tumor free” value in series [2] (Q3dx4 starting day 37, 750 mg/kg total dose IV) worked out at 30 days; in series [2] (Q4dx3 starting day 48, 187.5 mg/kg total dose IV), 30 days.
